Data as given in US20050009094A1 (priority 2001, published 2005).

Columns and labels:
PrP^Sc exposed neurons = conditions: cited from earlier work
14-3-3 gene expression = experiment: Expression of 14-3-3 gene in G. cydonium after exposition to PCB118 (Northern and Western Blotting); type: in vivo, Geodia cydonium; conditions: 2 μg PCB 118/g wet weight, incubation 0.5 to 6 days
Description: The analyses were accomplished by means of Northern Blotting [14-3-3 probe] (A) or Western Blotting [14-3-3 antibody] (B).
The employed method was PCR cloning.
The detection of expression of the 14-3-3 proteins on the protein level is accomplished by using antibodies. To this aim, one can either employ commercial antibodies (e.g. from the Calbiochem/Oncogene company) or antibodies raised against the recombinant invertebrate-14-3-3 protein from Geodia cydonium. […] The signals can again be quantified by using the chemiluminescence method. The tissue extracts can e.g. be prepared by homogenisation in a phosphate buffer containing 1 mM of EDTA and 1 mM of phenylmethylsulfonyl fluoride.
The 14-3-3-cDNA from the sea sponge Geodia cydonium was used as a gene probe for the detection of expression of the 14-3-3 proteins on the mRNA-level and the respective antibodies were used for determining the amount of protein. In the accomplished keeping experiments, PCB 118 was used as the model PCB.
1 ml of PCB118 (0.1 mg/ml in corn oil) were injected in 40 g sponge tissue. The samples were incubated in sea water for up to 6 days in 20 l aquariums at 17° C. with continuous aeration; the water was exchanged one time at day 2. Aliquot portions of the tissue (each about 200 mg) were withdrawn at the time zero or after an incubation period of 0.5; 1; 3; 5 and 6 days. […]

Structure (SMILES): CCOC(=O)Nc1ccc(NCc2ccc(F)cc2)nc1N [Flupirtin]
- effect counteracting the neurotoxic peptide PrP106-126 (PrP^Sc exposed neurons): cytoprotective effect
- effect on PrP^Sc exposed neurons (PrP^Sc exposed neurons): protective effect
- extent of apoptosis caused by PrP106-126 (PrP^Sc exposed neurons): reduces

Structure (SMILES): CC12CC3CC(C)(C1)CC(N)(C3)C2 [Memantin]
- effect on PrP^Sc exposed neurons (PrP^Sc exposed neurons): protective effect

Structure (SMILES): Clc1ccc(-c2cc(Cl)c(Cl)cc2Cl)cc1Cl [PCB118]
- expression of the 14-3-3 gene (mRNA and protein) (14-3-3 gene expression): very high values
